Experiments:
[1] = system: male C57BL/6J mice; experiment: Effect on hair growth (bald area) in high-fat diet fed male C57BL/6J mice; format: in vivo; conditions: 10 mg/kg orally; for growth of body hair (in words): high-fat diet fed male C57BL/6 mice, 28 days
Protocol: (§1) The C57BL/6 mice were housed on a lightdark cycle in a room with temperature (22±2° C.) and humidity control. They were fed either a high-fat diet (HFD) (49% fat, 18% protein, 33% carbohydrate) or a standard mouse diet (STD) (8% fat, 19% protein, 73% carbohydrate). Six-week-old C57BL/6J male mice were given HFD or STD diets for 17 wks before drug treatment started. […] After this, mice were weighed and treated as per the following three groups, while the diet treatment continued.
(§2) High-fat diet fed & vehicle treated (HFD-V), • High-fat diet fed & treated with 10 mg/kg Compound 2 (HFD-R 10 mg) • High-fat diet fed & treated with 10 mg/kg Compound 1 (HD-ZY 10 mg) • Compound 1 and Compound 2 were administered orally in distilled water with 0.1% Tween 80 one hour before the onset of the dark phase.
(§3) The animals were observed daily. Body weights were recorded daily, and the animals were photographed on 28th day on the back, The results are mentioned in Table 1 and Table 2.

[2] = Effect on body weight in high-fat diet fed male C57BL/6J mice; format: in vivo; conditions: for effect on body weight (in words): high-fat diet fed male C57BL/6 mice
Protocol: as §1, §2, §3

## Cc1c(C(=O)NN2CCCCC2)nn(-c2ccc(Cl)cc2Cl)c1-c1ccc(Cl)s1.Cl [Compound 1, Hydrochloride salt of 5-(5-Chloro-thiophen-2-yl)-1-(2,4-dichloro-phenyl)-4-methyl-1H-pyrazole-3-caxboxylic acid piperidin-1-ylamide]
[1]; high-fat diet fed male C57BL/6J mice, after 28th day of dosing, n = 6
  bald area (where hair growth or pigmentation has not appeared), Area (Mean ± Standard Error Mean): 0.011 ± 0.223 cm^2
[1]; 10 mg/kg
  growth of body hair (in words): significantly enhanced the growth of body hair
[1]; listed as compound 1, 10 mg/kg
  growth of body hair (in words): able to stimulate hair growth
[2]; high-fat diet fed male C57BL/6J mice, 10 mg/kg orally, 28 days, n = 6
  Change in Body Weight in 28 days versus Day 0: -1.7 ± 0.5 g
[2]; high-fat diet fed male C57BL/6J mice, 10 mg/kg orally, Day 28, n = 6
  Body Weight on Day 28: 26.9 ± 1.1 g
[2]; high-fat diet fed male C57BL/6J mice, 10 mg/kg orally, versus vehicle group, n = 6
  Change in Body Weight versus HFD-V: -3.3 ± 1.8 g
[2]; high-fat diet fed male C57BL/6J mice, Day 0 (baseline before treatment), n = 6
  Body Weight on Day 0: 29.2 ± 1.1 g
[2]; 10 mg/kg orally, 28 days, 10 mg/kg
  effect on body weight (in words): decrease in body weight
[2]; 10 mg/kg orally, 28 days, listed as compound 1, 10 mg/kg
  effect on body weight (in words): decreasing body weight

Reference: patent publication US20060025448A1, “Hair growth stimulators” (CADILA HEALTHCARE LIMITED, priority 2004, published 2006)
